Measured values as given in PMC8288134, “Synthesis, potential antitumor activity, cell cycle analysis, and multitarget mechanisms of novel hydrazones incorporating a 4-methylsulfonylbenzene scaffold: a molecular docking study” (Journal of Enzyme Inhibition and Medicinal Chemistry, 2021).
Read-outs that look alike come from different tables or passages of the source.

Key:
K-562 = system: K-562; design: method as in https://dtp.cancer.gov/dtpstandard/dwindex/index.jsp; conditions: reference drugs, ref https://dtp.cancer.gov/dtpstandard/dwindex/index.jsp; cited from earlier work
KM12 = system: KM12; design: method as in https://dtp.cancer.gov/dtpstandard/dwindex/index.jsp; conditions: reference drugs, ref https://dtp.cancer.gov/dtpstandard/dwindex/index.jsp; cited from earlier work
OVCAR-5 = system: OVCAR-5; design: method as in https://dtp.cancer.gov/dtpstandard/dwindex/index.jsp; conditions: reference drugs, ref https://dtp.cancer.gov/dtpstandard/dwindex/index.jsp; cited from earlier work
TK-10 = system: TK-10; design: method as in https://dtp.cancer.gov/dtpstandard/dwindex/index.jsp; conditions: reference drugs, ref https://dtp.cancer.gov/dtpstandard/dwindex/index.jsp; cited from earlier work
MOLT-4 = experiment: NCI antitumor screen (SRB); format: cell-based; conditions: Homo sapiens; for inhibition at 10 µM: one dose 10 µM, read-out: Growth inhibition percentage (GI%)
HOP-62 = experiment: NCI antitumor screen (SRB); format: cell-based; conditions: Homo sapiens
HCC-2998 = experiment: NCI antitumor screen (SRB); format: cell-based; conditions: Homo sapiens; for inhibition at 10 µM: one dose 10 µM, read-out: Growth inhibition percentage (GI%)
SF-295 = experiment: NCI antitumor screen (SRB); format: cell-based; conditions: Homo sapiens; for inhibition at 10 µM: one dose 10 µM, read-out: Growth inhibition percentage (GI%)
LOX IMVI = experiment: NCI antitumor screen (SRB); format: cell-based; conditions: Homo sapiens; for inhibition at 10 µM: one dose 10 µM, read-out: Growth inhibition percentage (GI%)
SK-MEL-2 = experiment: NCI antitumor screen (SRB); format: cell-based; conditions: Homo sapiens
HOP-92 = experiment: NCI antitumor screen (SRB); format: cell-based; conditions: Homo sapiens, five concentrations 0.01-100 µM
[1] = system: leukaemia tumour cell lines; experiment: NCI antitumor screen, subpanel; format: cell-based
[2] = system: NSC lung cancer tumour cell lines; experiment: NCI antitumor screen, subpanel; format: cell-based
[3] = system: colon cancer tumour cell lines; experiment: NCI antitumor screen, subpanel; format: cell-based
[4] = system: CNS cancer tumour cell lines; experiment: NCI antitumor screen, subpanel; format: cell-based
[5] = system: melanoma tumour cell lines; experiment: NCI antitumor screen, subpanel; format: cell-based
[6] = system: ovarian cancer tumour cell lines; experiment: NCI antitumor screen, subpanel; format: cell-based
[7] = system: renal cancer tumour cell lines; experiment: NCI antitumor screen, subpanel; format: cell-based
[8] = system: prostate cancer tumour cell lines; experiment: NCI antitumor screen, subpanel; format: cell-based
[9] = system: breast cancer tumour cell lines; experiment: NCI antitumor screen, subpanel; format: cell-based
[10] = HOP-62, one dose 10 µM, read-out: Growth inhibition percentage (GI%)
[11] = SK-MEL-2, one dose 10 µM, read-out: Growth inhibition percentage (GI%)
[12] = HOP-62, read-out: Growth inhibition percentage (GI%)
[13] = SK-MEL-2, read-out: Growth inhibition percentage (GI%)
[14] = five concentrations 0.01-100 µM
[15] = Homo sapiens, five concentrations
[16] = Homo sapiens, read-out: LC50 (subpanel average)

SMILES: CS(=O)(=O)c1ccc(C(=O)Nc2ccc(Cl)c(-c3ccccn3)c2)c(Cl)c1 [Vismodegib, vismodegib]
- GI50 (K-562): 31.6 µM
- GI50 (KM12): 31.6 µM
- GI50 (OVCAR-5): 100 µM
- GI50 (TK-10): 63.1 µM

SMILES: CNC(=O)c1cc(Oc2ccc(NC(=O)Nc3ccc(Cl)c(C(F)(F)F)c3)cc2)ccn1 [Sorafenib, sorafenib]
- GI50 (K-562): 3.16 µM
- GI50 (OVCAR-5): 3.16 µM
- GI50 (TK-10): 3.98 µM

SMILES: O=c1[nH]cc(F)c(=O)[nH]1 [Compound 5-Fu, 5-fluorouracil, reference compound]
- inhibition at 10 µM (MOLT-4): 56.9%
- inhibition at 10 µM (HOP-62; [10]): 52.2%
- inhibition at 10 µM (HCC-2998): > 100%
- inhibition at 10 µM (SF-295): 30.9%
- inhibition at 10 µM (LOX IMVI): 69.6%
- inhibition at 10 µM (SK-MEL-2; [11]): < 10%

SMILES: COc1cc2ncnc(Nc3ccc(F)c(Cl)c3)c2cc1OCCCN1CCOCC1 [Gefitinib, gefitinib]
- GI50 (K-562): 2.51 µM
- GI50 (KM12): 10 µM
- GI50 (OVCAR-5): 3.98 µM
- GI50 (TK-10): 0.794 µM

SMILES: Cc1ccc(-c2cc(C(F)(F)F)nn2-c2ccc(S(N)(=O)=O)cc2)cc1 [Celecoxib, celecoxib]
- GI50 (K-562): 10 µM
- GI50 (KM12): 15.8 µM
- GI50 (OVCAR-5): 19.9 µM
- GI50 (TK-10): 19.9 µM

SMILES: CS(=O)(=O)c1ccc(C(=O)N/N=C/c2ccccc2O)cc1 [Compound 16]
- inhibition at 10 µM (MOLT-4): 90.8%
- inhibition at 10 µM (HOP-62; [12]): 71.8%
- inhibition at 10 µM (HCC-2998): 52.7%
- inhibition at 10 µM (SF-295): 62%
- inhibition at 10 µM (LOX IMVI): 78.6%
- inhibition at 10 µM (SK-MEL-2; [13]): 60%

SMILES: CCN(CC)c1ccc(/C=N/NC(=O)c2ccc(S(C)(=O)=O)cc2)c(O)c1 [Compound 20]
- GI50 (MOLT-4; [14]): 0.164 µM
- inhibition at 10 µM (MOLT-4): 97.3%
- GI50 (HOP-62; HOP-62, five concentrations 0.01-100 µM): 0.085 µM
- inhibition at 10 µM (HOP-62; [10]): 87.1%
- GI50 (HOP-92): 0.491 µM
- GI50 (HCC-2998; [14]): 0.301 µM
- inhibition at 10 µM (HCC-2998): 60.4%
- GI50 (SF-295; [14]): 0.2 µM
- inhibition at 10 µM (SF-295): 78.6%
- GI50 (LOX IMVI; [14]): 0.0997 µM
- inhibition at 10 µM (LOX IMVI): 90.3%
- GI50 (SK-MEL-2; SK-MEL-2, five concentrations 0.01-100 µM): 0.307 µM
- inhibition at 10 µM (SK-MEL-2; [11]): 80.5%
- TGI (subpanel average) [1]: 83.5 µM
- GI50 [1, 15]: 0.23 µM
- CC50 [1, 16]: > 100 µM
- TGI (subpanel average) [2]: 65.0 µM
- GI50 [2, 15]: 0.26 µM
- CC50 [2, 16]: > 100 µM
- TGI (subpanel average) [3]: c (Compounds showed values ≥ 100 µM)
- GI50 [3, 15]: 0.27 µM
- CC50 [3, 16]: > 100 µM
- TGI (subpanel average) [4]: 71.7 µM
- GI50 [4, 15]: 0.22 µM
- CC50 [4, 16]: > 100 µM
- TGI (subpanel average) [5]: 45.6 µM
- GI50 [5, 15]: 0.31 µM
- CC50 [5, 16]: > 100 µM
- TGI (subpanel average) [6]: 70.0 µM
- GI50 [6, 15]: 1.1 µM
- CC50 [6, 16]: > 100 µM
- TGI (subpanel average) [7]: 80.3 µM
- GI50 [7, 15]: 1.4 µM
- CC50 [7, 16]: > 100 µM
- TGI (subpanel average) [8]: c (Compounds showed values ≥ 100 µM)
- GI50 [8, 15]: 0.23 µM
- CC50 [8, 16]: > 100 µM
- TGI (subpanel average) [9]: 69.5 µM
- GI50 [9, 15]: 2.2 µM
- CC50 [9, 16]: > 100 µM

SMILES: Cc1ccc(C=NNC(=O)c2ccc(S(C)(=O)=O)cc2)cc1 [Compound 9, N'-(4-Methylbenzylidene)-4-(methylsulfonyl)benzohydrazide]
- inhibition at 10 µM (MOLT-4): 22.6%
- inhibition at 10 µM (HOP-62; [10]): < 10%
- inhibition at 10 µM (HCC-2998): < 10%
- inhibition at 10 µM (SF-295): < 10%
- inhibition at 10 µM (LOX IMVI): < 10%
- inhibition at 10 µM (SK-MEL-2; [13]): 19.8%

SMILES: CS(=O)(=O)c1ccc(C(=O)NN=Cc2cccc3ccccc23)cc1 [Compound 6, 4-(Methylsulfonyl)-N'-(naphthalen-1-ylmethylene)benzohydrazide]
- inhibition at 10 µM (MOLT-4): 53.2%
- inhibition at 10 µM (HOP-62; [12]): 25.1%
- inhibition at 10 µM (HCC-2998): 15.5%
- inhibition at 10 µM (SF-295): 24%
- inhibition at 10 µM (LOX IMVI): 27.6%
- inhibition at 10 µM (SK-MEL-2; [13]): 52.3%

SMILES: C#Cc1cccc(Nc2ncnc3cc(OCCOC)c(OCCOC)cc23)c1 [Erlotinib, erlotinib]
- GI50 (K-562): 31.6 µM
- GI50 (KM12): 79.4 µM
- GI50 (OVCAR-5): 7.94 µM
- GI50 (TK-10): 0.251 µM
